Results from US20260083125A1, “METHODS FOR MANAGING HERBICIDE VAPORIZATION” (AgQuam R&D, LLC, priority 2016, published 2026).

Legend:
Corn = test: Greenhouse study for weed control, corn; type: in vivo; details: Glyphosate 0.375 lb/acre; AMS 17 lb/100 gal; NIS, AQ 284, AQ 268 […] v/v; INTERLOCK 4 fl oz/acre
Method: (§1) A greenhouse study was conducted to test the efficacy of the AQ 284 combination water conditioning adjuvant and drift reduction composition compared to the commercial standard (INTERLOCK). Greenhouse research was conducted with individual plants growing in 3×3×3 inch pots. Greenhouse treatments were applied with a track sprayer using an 8002 E single nozzle applying 20 gpa.

Sunflower = test: Greenhouse study for weed control, sunflower; type: in vivo; details: Glyphosate 0.375 lb/acre; AMS 17 lb/100 gal; NIS, AQ 284, AQ 268 […] v/v; INTERLOCK 4 fl oz/acre
Method: as §1

Wheat = test: Greenhouse study for weed control, wheat; type: in vivo; details: Glyphosate 0.375 lb/acre; AMS 17 lb/100 gal; NIS, AQ 284, AQ 268 […] v/v; INTERLOCK 4 fl oz/acre
Method: as §1

Corn, Sunflower, Wheat = test: Greenhouse study for weed control, average of corn, sunflower and wheat; type: in vivo; details: Glyphosate 0.375 lb/acre; AMS 17 lb/100 gal; NIS, AQ 284, AQ 268 […] v/v; INTERLOCK 4 fl oz/acre
Method: as §1

[1] = Lecithin addition to sulfuric acid, urea sulfate and AQ 216 (lecithin stability); type: physicochemical; details: for Notes (result of lecithin addition): on addition
Text: Lecithin is known to be unstable in a sulfuric acid environment. […] For each reaction with urea sulfate and AQ 216, the urea sulfate was mixed thoroughly or AQ 216 was mixed thoroughly, before the addition of the lecithin composition.

[2] = lecithin composition AIRLINK 50 mL
[3] = lecithin composition LI 700 50 mL
[4] = lecithin composition LIBERATE 50 mL

SMILES | Corn % Control 18 Days After Application (Corn) [%] | Sunflower % Control 18 Days After Application (Sunflower) [%] | Wheat % Control 18 Days After Application (Wheat) [%] | Average % Control 18 Days After Application (Corn, Sunflower, Wheat) [%] | reaction with lecithin compositions ([1]; 50 mL of each of the lecithin compositions, equivalent amount of sulfuric acid (3 mL)) | Time 1 hour [1, 2] | Time 12 Hours [1, 2] | Notes (result of lecithin addition) ([1]; lecithin composition AIRLINK 50 mL, 3 mL sulfuric acid or 6 mL urea sulfate / AQ 216) | Time 1 hour [1, 3] | Time 12 Hours [1, 3] | Notes (result of lecithin addition) [1, 3] | Time 1 hour [1, 4] | Time 12 Hours [1, 4] | Notes (result of lecithin addition) [1, 4]
O=C(O)CNCP(=O)(O)O [Glyphosate, N-phosphonomethylglycine] | 10.0 | 15.0 | 15.0 | 13.3 |  |  |  |  |  |  |  |  |  | 
O=S(=O)(O)O [Sulfuric Acid] |  |  |  |  | forming a precipitate | More precipitate | More precipitate | Dark Precipitate | More precipitate | More precipitate | Dark Precipitate | More precipitate | More precipitate | Dark Precipitate
